For series [1], the system named is non-small cell lung carcinoma where EGFR is overexpressed. As to the kind of experiment: Example VI: non-small cell lung carcinoma metastasized to liver. The format is in vivo, human. As to conditions: patient, oral 5 mg/kg twice daily. The procedure:
After one month, PPARγ ligand administration is continued in combination with infusion of cisplatin every four weeks at 60 mg/m^2 for 12 more weeks.

Series [2] concerns head and neck carcinoma where EGFR is overexpressed. As to the kind of experiment: Example VII: head and neck carcinoma. The format is in vivo, human. As to conditions: after the 12 weeks of CETUXIMAB and cisplatin, oral 5 mg/kg twice daily for 12 weeks. How it is done:
Concurrently cisplatin is infused every four weeks at 60 mg/m^2.

The subject of series [3] is HER-2/neu positive breast cancer. Briefly: Example II: adjuvant therapy with PPARγ ligand and HERCEPTIN
Particulars: patient, oral 5 mg/kg twice daily for one year, with HERCEPTIN 250 mg IV loading then 10 weekly doses of 125 mg. The format is in vivo, human.

The test system is the same in series [4]. As to the kind of experiment: Example I: adjuvant therapy after mastectomy. In kind it is in vivo, human. As to conditions: patient, oral 5 mg/kg twice per day for five years after mastectomy.
A short description of the next series: physchem. As to conditions: ph 7.4 buffer, pH 7.4, aqueous buffer.
In series [5] the test system is HER-2/neu positive breast cancer metastasized to bone. Briefly: Example IV: breast cancer metastasized to bone. The format is in vivo, human. Particulars: patient after failure of prior chemotherapy, oral 5 mg/kg twice daily plus HERCEPTIN
How it is done: After 90 days, oral cyclophosphamide at a dose of 3 mg/kg/day and doxorubicin administered intravenously weekly at a dose of 20 mg/m^2, are added to the drug regimen.

The structures appear in SMILES notation. ≈ marks a conversion by molar mass, not a printed value.

In the case of `COC(=O)c1ccccc1N[C@@H](Cc1ccc(OCCc2nc(-c3ccccc3)oc2C)cc1)C(=O)O` [GW7845, (S)-2-(1-carboxy-2-{4-[2-(5-methyl-2-phenyloxazol-4-yl)ethoxy]phenyl}ethylamino)benzoic acid methyl ester], the tumor burden entry in series [1] is “reduced tumor burden”; in series [2], “further reduced tumor burden”; in series [5] it was “reduced tumor burden”. For the same compound, the figures for the “recurrence of breast cancer” value in series [3] and in series [4] were “Recurrence of breast cancer does not occur” and “recurrence of breast cancer does not occur”, respectively. The same compound displayed a solubility in “physchem” of 300 µg/mL (≈ 599 µM).

The record behind these values is patent US6291496A, “Treating cancers associated with overexpression of class I family of receptor tyrosine kinases” (priority 1999, dated 2001).
